Blank lines part the entries; values can stand above or below the molecule they belong to.
Columns and labels:
[1] = molecular target: T1, NNMT (Homo sapiens, UniProt P40261); assay: Fluorescence-based continuous NNMT inhibition assay; format: biochemical; settings: for NNMT inhibition (in words): qualitative SAR statement
T1 sequence (P40261 1-264): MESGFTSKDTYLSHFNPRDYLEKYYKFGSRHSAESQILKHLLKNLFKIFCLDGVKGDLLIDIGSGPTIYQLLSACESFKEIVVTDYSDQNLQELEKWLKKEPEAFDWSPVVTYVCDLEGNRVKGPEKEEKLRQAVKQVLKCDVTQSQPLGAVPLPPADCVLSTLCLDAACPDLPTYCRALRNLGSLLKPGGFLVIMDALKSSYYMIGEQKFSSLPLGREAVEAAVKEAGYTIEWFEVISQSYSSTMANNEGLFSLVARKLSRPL

[2] = test system: U2OS cells; assay: CellTiter-Glo luminescent cell viability; format: cell-based, human; settings: 48 h, 100 μM dose
[3] = test system: MNAM levels in U2OS cells; assay: MNAM measurement in U2OS cells by LC-MS/MS; format: cell-based, human; settings: 24 h incubation
[4] = molecular target: T1, NNMT; assay: Cellular thermal shift assay; format: binding; settings: K562 cell lysate; various concentrations; heated at 57 °C
[5] = test system: Caco-2; assay: A-B permeability testing; settings: Caco-2, pH 6.5/7.4

NNMT inhibition (in words) [1]: moderate NNMT inhibitors
Compound: Nc1ncnc2c1ncn2[C@@H]1O[C@H](C[C@@H](C#Cc2ccc3c(c2)C(=O)NC3)CC[C@H](N)C(=O)O)[C@@H](O)[C@H]1O [compound 35, (2S,5S)-2-amino-5-(((2R,3S,4R,5R)-5-(6-amino-9H-purin-9-yl)-3,4-dihydroxytetrahydrofuran-2-yl)methyl)-7-(3-oxoisoindolin-5-yl)hept-6-ynoic acid]

NNMT inhibition (in words) [1]: proved detrimental
Compound: NC(=O)c1cccc(C#C[C@@H]2C[C@H]2[C@H]2O[C@@H](n3cnc4c(N)ncnc43)[C@H](O)[C@@H]2O)c1 [compound 18, 3-(((1R,2R)-2-((2R,3S,4R,5R)-5-(6-amino-9H-purin-9-yl)-3,4-dihydroxytetrahydrofuran-2-yl)cyclopropyl)ethynyl)benzamide]

NNMT inhibition (in words) [1]: completely abrogated NNMT inhibition
Compound: CO[C@@H]1O[C@H](C[C@@H](C#Cc2cccc(C(N)=O)c2)CC[C@H](N)C(=O)O)[C@@H](O)[C@H]1O [compound 19, (2S,5S)-2-amino-7-(3-carbamoylphenyl)-5-(((2R,3S,4R,5R)-3,4-dihydroxy-5-methoxytetrahydrofuran-2-yl)methyl)hept-6-ynoic acid]

NNMT inhibition (in words) [1]: much less potent than NS1
Compound: Nc1ncnc2c1ncn2[C@@H]1O[C@H](C[C@@H](C#Cc2cccc(S(N)(=O)=O)c2)CC[C@H](N)C(=O)O)[C@@H](O)[C@H]1O [compound 29, (2S,5S)-2-amino-5-(((2R,3S,4R,5R)-5-(6-amino-9H-purin-9-yl)-3,4-dihydroxytetrahydrofuran-2-yl)methyl)-7-(3-sulfamoylphenyl)hept-6-ynoic acid]

isothermal dose response CETSA, stabilization of NNMT (in words) [4]: dose-dependent manner
Compound: NC(=O)NCC[C@H](C#Cc1cccc(C(N)=O)c1)C[C@H]1O[C@@H](n2cnc3c(N)ncnc32)[C@H](O)[C@@H]1O [compound 25, 3-((S)-3-(((2R,3S,4R,5R)-5-(6-amino-9H-purin-9-yl)-3,4-dihydroxytetrahydrofuran-2-yl)methyl)-5-ureidopent-1-yn-1-yl)benzamide]
cytotoxicity to U2OS cells (in words) [2]: None of the compounds tested (NS1, 21, 23, 24, 25) were toxic
ability to decrease MNAM levels in U2OS cells (in words) [3]: the effects were modest

NNMT inhibition (in words) [1]: much less potent than NS1
Compound: NC(=O)c1ccc(C#C[C@@H](CC[C@H](N)C(=O)O)C[C@H]2O[C@@H](n3cnc4c(N)ncnc43)[C@H](O)[C@@H]2O)cc1 [compound 27, (2S,5S)-2-amino-5-(((2R,3S,4R,5R)-5-(6-amino-9H-purin-9-yl)-3,4-dihydroxytetrahydrofuran-2-yl)methyl)-7-(4-carbamoylphenyl)hept-6-ynoic acid]

fold increase in inhibitory activity in terms of Ki compared to NS1 ([1]; relative to NS1): ~ 2 fold
Compound: NC(=O)c1cccc(C#C[C@@H](CCC[C@H](N)C(=O)O)C[C@H]2O[C@@H](n3cnc4c(N)ncnc43)[C@H](O)[C@@H]2O)c1 [compound 26, (2S,6S)-2-amino-6-(((2R,3S,4R,5R)-5-(6-amino-9H-purin-9-yl)-3,4-dihydroxytetrahydrofuran-2-yl)methyl)-8-(3-carbamoylphenyl)oct-7-ynoic acid]

NNMT inhibition (in words) [1]: much less potent than NS1
Compound: NC(=O)c1ccccc1C#C[C@@H](CC[C@H](N)C(=O)O)C[C@H]1O[C@@H](n2cnc3c(N)ncnc32)[C@H](O)[C@@H]1O [compound 28, (2S,5S)-2-amino-5-(((2R,3S,4R,5R)-5-(6-amino-9H-purin-9-yl)-3,4-dihydroxytetrahydrofuran-2-yl)methyl)-7-(2-carbamoylphenyl)hept-6-ynoic acid]

NNMT inhibition (in words) [1]: moderate NNMT inhibitors
Compound: Nc1ncnc2c1ncn2[C@@H]1O[C@H](C[C@@H](C#Cc2ccc3c(c2)C(=O)NCC3)CC[C@H](N)C(=O)O)[C@@H](O)[C@H]1O [compound 34, (2S,5S)-2-amino-5-(((2R,3S,4R,5R)-5-(6-amino-9H-purin-9-yl)-3,4-dihydroxytetrahydrofuran-2-yl)methyl)-7-(1-oxo-1,2,3,4-tetrahydroisoquinolin-7-yl)hept-6-ynoic acid]

NNMT inhibition (in words) [1]: poor NNMT inhibitor
Compound: NC(=O)c1cccc(C#C[C@@H](CCCC(=O)O)C[C@H]2O[C@@H](n3cnc4c(N)ncnc43)[C@H](O)[C@@H]2O)c1 [compound 20, (S)-5-(((2R,3S,4R,5R)-5-(6-amino-9H-purin-9-yl)-3,4-dihydroxytetrahydrofuran-2-yl)methyl)-7-(3-carbamoylphenyl)hept-6-ynoic acid]

The next lines start with the molecule.

Compound: C#C[C@@H](CC[C@H](N)C(=O)O)C[C@H]1O[C@@H](n2cnc3c(N)ncnc32)[C@H](O)[C@@H]1O [compound 12, (2S,5S)-2-amino-5-(((2R,3S,4R,5R)-5-(6-amino-9H-purin-9-yl)-3,4-dihydroxytetrahydrofuran-2-yl)methyl)hept-6-ynoic acid]
NNMT inhibition (in words) [1]: equally poor NNMT inhibitors

Compound: NC(=O)c1cccc(CC[C@@H](CC[C@H](N)C(=O)O)C[C@H]2O[C@@H](n3cnc4c(N)ncnc43)[C@H](O)[C@@H]2O)c1 [compound 15, (2S,5S)-2-amino-5-(((2R,3S,4R,5R)-5-(6-amino-9H-purin-9-yl)-3,4-dihydroxytetrahydrofuran-2-yl)methyl)-7-(3-carbamoylphenyl)heptanoic acid]
fold more potent than MS2756 in terms of Ki ([1]; relative to MS2756): approximately 200 fold
fold weaker inhibitor than NS1 in terms of Ki ([1]; relative to NS1): ~10 fold

Compound: NCCC[C@H](C#Cc1cccc(C(N)=O)c1)C[C@H]1O[C@@H](n2cnc3c(N)ncnc32)[C@H](O)[C@@H]1O [compound 21, 3-((S)-6-amino-3-(((2R,3S,4R,5R)-5-(6-amino-9H-purin-9-yl)-3,4-dihydroxytetrahydrofuran-2-yl)methyl)hex-1-yn-1-yl)benzamide]
cytotoxicity to U2OS cells (in words) [2]: None of the compounds tested (NS1, 21, 23, 24, 25) were toxic
ability to decrease MNAM levels in U2OS cells (in words) [3]: the effects were modest

Compound: NC(=O)c1cccc(C#C[C@@H](CC[C@H](N)C(=O)O)C[C@H]2O[C@@H](n3cnc4c(N)ncnc43)[C@H](O)[C@@H]2O)c1 [NS1, (2S,5S)-2-amino-5-(((2R,3S,4R,5R)-5-(6-amino-9H-purin-9-yl)-3,4-dihydroxytetrahydrofuran-2-yl)methyl)-7-(3-carbamoylphenyl)hept-6-ynoic acid]
isothermal dose response CETSA, stabilization of NNMT (in words) [4]: dose-dependent manner
cytotoxicity to U2OS cells (in words) [2]: None of the compounds tested (NS1, 21, 23, 24, 25) were toxic
ability to decrease MNAM levels in U2OS cells (in words) [3]: the effects were modest
A-B permeability (in words) [5]: limited permeability

Compound: Nc1ncnc2c1ncn2[C@@H]1O[C@H](CCCC[C@H](N)C(=O)O)[C@@H](O)[C@H]1O [compound 11, (S)-2-amino-6-((2R,3S,4R,5R)-5-(6-amino-9H-purin-9-yl)-3,4-dihydroxytetrahydrofuran-2-yl)hexanoic acid]
NNMT inhibition (in words) [1]: poor NNMT inhibitor

Compound: COC(=O)[C@@H](N)CC[C@H](C#Cc1cccc(C(N)=O)c1)C[C@H]1O[C@@H](n2cnc3c(N)ncnc32)[C@H](O)[C@@H]1O [compound 23, Methyl (2S,5S)-2-amino-5-(((2R,3S,4R,5R)-5-(6-amino-9H-purin-9-yl)-3,4-dihydroxytetrahydrofuran-2-yl)methyl)-7-(3-carbamoylphenyl)hept-6-ynoate]
cytotoxicity to U2OS cells (in words) [2]: None of the compounds tested (NS1, 21, 23, 24, 25) were toxic
ability to decrease MNAM levels in U2OS cells (in words) [3]: the effects were modest

Compound: Nc1ncnc2c1ncn2[C@@H]1O[C@H](C[C@@H](C#Cc2ccccc2)CC[C@H](N)C(=O)O)[C@@H](O)[C@H]1O [compound 13, (2S,5S)-2-amino-5-(((2R,3S,4R,5R)-5-(6-amino-9H-purin-9-yl)-3,4-dihydroxytetrahydrofuran-2-yl)methyl)-7-phenylhept-6-ynoic acid]
NNMT inhibition (in words) [1]: equally poor NNMT inhibitors

Compound: NC(=O)c1cccc(C#CCC[C@H]2O[C@@H](n3cnc4c(N)ncnc43)[C@H](O)[C@@H]2O)c1 [compound 17, 3-(4-((2R,3S,4R,5R)-5-(6-amino-9H-purin-9-yl)-3,4-dihydroxytetrahydrofuran-2-yl)but-1-yn-1-yl)benzamide]
fold weaker inhibitor than NS1 in terms of Ki ([1]; relative to NS1): ~ 500 fold

Compound: NC(=O)c1cccc(C#C[C@@H](CC[C@H](N)C(N)=O)C[C@H]2O[C@@H](n3cnc4c(N)ncnc43)[C@H](O)[C@@H]2O)c1 [compound 24, 3-((3S,6S)-6,7-diamino-3-(((2R,3S,4R,5R)-5-(6-amino-9H-purin-9-yl)-3,4-dihydroxytetrahydrofuran-2-yl)methyl)-7-oxohept-1-yn-1-yl)benzamide]
cytotoxicity to U2OS cells (in words) [2]: None of the compounds tested (NS1, 21, 23, 24, 25) were toxic
ability to decrease MNAM levels in U2OS cells (in words) [3]: the effects were modest

Compound: NC(=O)c1cccc(CC[C@H](CC[C@H](N)C(=O)O)C[C@H]2O[C@@H](n3cnc4c(N)ncnc43)[C@H](O)[C@@H]2O)c1 [compound 16, (2S,5R)-2-amino-5-(((2R,3S,4R,5R)-5-(6-amino-9H-purin-9-yl)-3,4-dihydroxytetrahydrofuran-2-yl)methyl)-7-(3-carbamoylphenyl)heptanoic acid]
fold difference in Ki between NS1-alkane and its C6’ epimer ([1]; relative to NS1-alkane (15)): ~ 20 fold
